According to patent US20120045393A1 (priority 2009, published 2012):
Where two headings read alike, the source gives them in different places. Non-standard residues stand in square brackets, D forms with d. Primed or numbered codes have the meaning given here. *: point of attachment. DO3A10CM(3) = metal chelator group attached at the N-terminus (X in table rows); Bpa = N[C@@H](Cc1ccc(C(=O)c2ccccc2)cc1)C(=O)O; d1Nal = N[C@H](Cc1cccc2ccccc12)C(=O)O; d2Nal = N[C@H](Cc1ccc2ccccc2c1)C(=O)O; Hyp = O=C(O)[C@@H]1C[C@@H](O)CN1; d3Pal = N[C@H](Cc1cccnc1)C(=O)O; His(1-Me) = 1-methylhistidine; DO3A10CM = not defined here; Nicotinoyl = O=C(c1cccnc1)*; Bpa4 = non-natural residue; Amfe4 = not defined here; Bzgly = not defined here; Dcfe4 = not defined here; dCfe4 = not defined here; Afe4 = not defined here; azaGly = NNC(=O)O; Sar = CNCC(=O)O; iPr = CC(C)*

B1: BRU-2792 (peptide)
peptide: DO3A10CM-G[Bzgly]HWSH[dR]W[Bpa]P[azaGly]-NH2
modifications: reading uncertain; also: printed as DO3A10CM-Gly-Bzgly-His-Trp-Ser-His-Darg-Trp-Bpa4-Pro-azaGly-NH2
B2: BRU-2812 (peptide)
peptide: DO3A10CM-[d2Nal][Afe4]WSH[dR]W[Bpa]P[azaGly]-NH2
modifications: reading uncertain; also: printed as DO3A10CM-Dnal2-Afe4-Trp-Ser-His-Darg-Trp-Bpa4-Pro-azaGly-NH2
B3: BRU-2725 (peptide)
peptide: XHWSHXWXPX
modifications: as printed: DO3A10CM-Sar-His-Trp-Ser-His-Darg-Trp-Cfe4-Pro-azaGly-NH2
B4: BRU-2722 (peptide)
peptide: XHWSHXWXPX
modifications: as printed: DO3A10CM-Sar-His-Trp-Ser-His-Darg-Trp-F5fe-Pro-azaGly-NH2
B5: BRU-2644 (peptide)
peptide: {DO3A10CM(3)}-G[d2Nal][dCfe4][d3Pal]SH[dR]WYP[dA]-NH2
modifications: reading uncertain; also: printed as DO3A10CM-Gly-Dnal2-Dcfe4-Dpal3-Ser-His-Darg-Trp-Tyr-Pro-Dala-NH2
B6: BRU-2721 (peptide)
peptide: XHWSHXWXPX
modifications: as printed: DO3A10CM-Sar-His-Trp-Ser-His-Darg-Trp-Dip-Pro-azaGly-NH2
B7: BRU-2738 (peptide)
peptide: XFWSHXWXPX
modifications: as printed: DO3A10CM-Sar-Phe-Trp-Ser-His-Darg-Trp-Bpa4-Pro-azaGly-NH2
B8: BRU-2823 (peptide)
peptide: XHWSHXWXPX
modifications: as printed: DO3A10CM-Sar-His-Trp-Ser-His-Darg-Trp-Thy-Pro-azaGly-NH2
B9: BRU-2624 (peptide)
peptide: XHWSHXWXPX
modifications: as printed: DO3A10CM-Sar-His-Trp-Ser-His-Darg-Trp-Nal2-Pro-azaGly-NH2

Experiments:
[1] = tested on: LHRH binding sites on human ovarian cancer cells (EFO-27);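 also: Cell-associated radioactivity on confluent EFO-27 monolayers in 96-well plates, measured by microplate scintillation counting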
[2] = tested on: EFO-27 human ovarian cancer cells (LHRH binding sites); experiment: Direct binding/uptake of 177Lu-labeled LHRH-II analogs to EFO-27 cells; details: 177Lu-labeled analog, single concentration
Method: All reagents and chemicals were obtained from Sigma unless otherwise specified. LHRH analogs and ^177Lu-LHRH-II analogs were prepared by in-house chemists, as described elsewhere in the application. ^177Lu-LHRH-II analogs were not HPLC purified, as they had been prepared using formulation conditions that yielded high RCP without the need for purification. […] The HPLC-purified material was taken in a stabilizing buffer containing 5% lactose, 0.1% L-cysteine hydrochloride and 800 KIU/mL aprotinin and received as a lyophilized product and stored at −70° C. This was reconstituted in distilled water, aliquoted and stored at −70° C. The radioactivity was determined using Microplate Scintillation counter (Wallac Microbeta Trilux).
For the binding assay, EFO-27 cells were seeded onto 96-well clear flat-bottom tissue-culture-treated plates at 15,000/well density in the growth medium and used for assay on day 2 post-seeding. Cells were routinely checked for confluence and contamination and cell count was done occasionally to ensure consistency in cell numbers.
Direct Binding: Direct binding studies were carried out by incubating appropriate ^177Lu-labeled compounds with EFO-27 cells at 4° C. for 1 h followed by washing off the unbound radioactivity. Non-specific binding was determined by incubating the ^177Lu-LHRH-II analogs in the presence of a large excess (30 uM) of cold (unlabeled) LHRH-II analogs. A 96-well plate format was used.

[3] = molecular target: LHRH receptor (LHRH binding sites) on EFO-27 human ovarian cancer cells (human); experiment: competition with [125I-Tyr8]BRU-2477 for binding to EFO-27 cells
[4] = molecular target: LHRH binding sites on EFO-27 human ovarian cancer cells (human); experiment: competition with [125I-Tyr8]BRU-2477 on EFO-27 cells
[5] = Table 8: N-substituted amino acid at position 1 and Gly as linker, in vitro binding on EFO-27 cells
[6] = read-out: 125I-LHRH II Competition EC50, Table 24, unlabeled analogs, EFO-27 cells
[7] = Table 13: linker between AA1 and DO3A10CM, EFO-27 cells

Molecule	177Lu-LHRH II Direct binding % Bound [2] [%]	EC50 [1, 6] [nM]	other results
N=C(N)NCCC[C@@H](NC(=O)[C@H](Cc1c[nH]cn1)NC(=O)[C@H](CO)NC(=O)[C@H](Cc1c[nH]c2ccccc12)NC(=O)[C@H](Cc1c[nH]cn1)NC(=O)CN(CCc1ccc(O)cc1)C(=O)CNC(=O)CN1CCN(CC(=O)O)CCN(CC(=O)O)CCN(CC(=O)O)CC1)C(=O)N[C@@H](Cc1c[nH]c2ccccc12)C(=O)N[C@@H](Cc1ccc(C(=O)c2ccccc2)cc1)C(=O)N1CCC[C@H]1C(=O)NNC(N)=O [compound 2797]	4.64		EC50 [1, 5]: 450 nM
2766 (DO3A10CM-G[d1Nal]HWSH[dR]W[Bpa]P[azaGly]-NH2; reading uncertain) [compound 2766]	10.29	620	
2722 (XHWSHXWXPX; not fully specified; N-methyl) [compound 2722]	0.36	4620	
2742 (XHWSHXWXPX; N-methyl) [compound 2742]	0.125	> 10000	
2896 (XHWSHXWXPX; not fully specified; N-methyl) [compound 2896]	0.70	3200	
N=C(N)NCCC[C@@H](NC(=O)[C@H](Cc1c[nH]cn1)NC(=O)[C@H](CO)NC(=O)[C@H](Cc1c[nH]c2ccccc12)NC(=O)[C@H](Cc1c[nH]cn1)NC(=O)CN(Cc1ccccc1)C(=O)CNC(=O)CN1CCN(CC(=O)O)CCN(CC(=O)O)CCN(CC(=O)O)CC1)C(=O)N[C@@H](Cc1c[nH]c2ccccc12)C(=O)N[C@@H](Cc1ccc(C(=O)c2ccccc2)cc1)C(=O)N1CCC[C@H]1C(=O)NNC(N)=O [compound 2792]	1.28	1800	EC50 [1, 5]: 2270 nM; EC50 [1, 7]: 650 nM
2624 (XHWSHXWXPX; N-methyl) [compound 2624]	4.03	2010	
2613 (DO3A10CM-G[Sar][Dcfe4][d1Nal]S[Metyr][dK](Nicotinoyl)LK(iPr)P[dA]-NH2; reading uncertain) [compound 2613]	0.17	> 10000	
2738 (XFWSHXWXPX; N-methyl) [compound 2738]	1.41		
N=C(N)NCCC[C@H](NC(=O)[C@@H](Cc1ccc2ccccc2c1)NC(=O)CN1CCN(CC(=O)O)CCN(CC(=O)O)CCN(CC(=O)O)CC1)C(=O)N[C@@H](Cc1c[nH]c2ccccc12)C(=O)N[C@@H](CO)C(=O)N[C@@H](Cc1c[nH]cn1)C(=O)N[C@H](CCCNC(=N)N)C(=O)N[C@@H](Cc1c[nH]c2ccccc12)C(=O)N[C@@H](Cc1ccc(C(=O)c2ccccc2)cc1)C(=O)N1CCC[C@H]1C(=O)NNC(N)=O [compound 2813]	18.80	300	
2812 (DO3A10CM-[d2Nal][Afe4]WSH[dR]W[Bpa]P[azaGly]-NH2; not fully specified; printed as X-Dnal2-Afe4-Trp-Ser-His-Darg-Trp-Bpa4-Pro-azaG-NH2; reading uncertain) [compound 2812]	5.80	3690	
N=C(N)NCCC[C@H](NC(=O)[C@@H](Cc1ccc2ccccc2c1)NC(=O)CN1CCN(CC(=O)O)CCN(CC(=O)O)CCN(CC(=O)O)CC1)C(=O)N[C@@H](Cc1c[nH]c2ccccc12)C(=O)N[C@@H](CO)C(=O)N[C@@H](Cc1c[nH]cn1)C(=O)N[C@H](CCCNC(=N)N)C(=O)N[C@@H](Cc1c[nH]c2ccccc12)C(=O)N[C@@H](Cc1ccc(C(=O)c2ccccc2)cc1)C(=O)N1CCC[C@H]1C(=O)NCCOCCN [compound 2968]	23.5		EC50 [1]: 240 nM
2756 (DO3A10CM-[Sar][Amfe4]WSH[dR]W[Bpa4]P[azaGly]-NH2; reading uncertain) [compound 2756]	5.17	280	
2741 (DO3A10CM-[Sar][His(1-Me)]WSH[dR]W[Bpa]P[azaGly]-NH2; reading uncertain) [compound 2741]	1.35	2990	
2725 (XHWSHXWXPX; not fully specified; N-methyl) [compound 2725]	0.41	2260	
2440 (DO3A10CM-[Sar]HWSH[dR]WYP[azaGly]-NH2; reading uncertain) [compound 2440]	0.21	> 10000	

Molecule	177Lu-LHRH II Direct binding % Bound [2] [%]	EC50 [1, 6] [nM]	other results
2721 (XHWSHXWXPX; not fully specified; N-methyl) [compound 2721]	0.79	4550	
N=C(N)NCCC[C@@H](NC(=O)[C@H](Cc1c[nH]cn1)NC(=O)[C@H](CO)NC(=O)[C@H](Cc1c[nH]c2ccccc12)NC(=O)[C@H](Cc1c[nH]cn1)NC(=O)[C@@H](Cc1ccc2ccccc2c1)NC(=O)CN1CCN(CC(=O)O)CCN(CC(=O)O)CCN(CC(=O)O)CC1)C(=O)N[C@@H](Cc1c[nH]c2ccccc12)C(=O)N[C@@H](Cc1ccc(C(=O)c2ccccc2)cc1)C(=O)N1CCC[C@H]1C(=O)NNC(N)=O [compound 2666]	13.25		
2644 (DO3A10CM-G[d2Nal][Dcfe4][d3Pal]SH[dR]WYP[dA]-NH2; reading uncertain) [compound 2644]	2.13	2910	
2642 (DO3A10CM-G[d2Nal][Dcfe4][d3Pal]S[Metyr][dK](Nicotinoyl)LK(iPr)[Hyp][dA]-NH2; reading uncertain) [compound 2642]	0.105	> 10000	
CN(CC(=O)N[C@@H](Cc1c[nH]cn1)C(=O)N[C@@H](Cc1c[nH]c2ccccc12)C(=O)N[C@@H](CO)C(=O)N[C@@H](Cc1c[nH]cn1)C(=O)N[C@H](CCCNC(=N)N)C(=O)N[C@@H](Cc1c[nH]c2ccccc12)C(=O)N[C@@H](Cc1ccc(C(=O)c2ccccc2)cc1)C(=O)N1CCC[C@H]1C(=O)NNC(N)=O)C(=O)CN1CCN(CC(=O)O)CCN(CC(=O)O)CCN(CC(=O)O)CC1 [compound 2443]	1.8	950	EC50 ([1]; Table 11: modification of amino acid at position 5, EFO-27 cells): 950 nM; EC50 [1, 7]: 950 nM
2823 (XHWSHXWXPX; not fully specified; N-methyl) [compound 2823]	1.00	1610	
B1			EC50 [3]: 1800 nM; EC50 [4]: 2270 nM
B2			EC50 [3]: 3690 nM
B3			EC50 [3]: 2260 nM; EC50 [4]: 2260 nM
B4			EC50 [3]: 4620 nM; EC50 [4]: 4620 nM
B5			EC50 [3]: 2910 nM
B6			EC50 [3]: 4550 nM; EC50 [4]: 4550 nM
B7			EC50 [3]: 1220 nM
B8			EC50 [3]: 1610 nM; EC50 [4]: 1610 nM
B9			EC50 [3]: 2010 nM; EC50 [4]: 2010 nM
